Source: ChEMBL document CHEMBL4002633, “Synthesis, evaluation and quantitative structure-activity relationship (QSAR) analysis of Wogonin derivatives as cytotoxic agents” (Bioorg Med Chem Lett, 2017)

How the values were obtained:
HepG2 [1] = assay: Cytotoxicity against human HepG2 cells assessed as reduction in cell viability after 48 hrs by MTT assay; format: functional, cell-based; details: HepG2, 48 h
A549 [2] = assay: Cytotoxicity against human A549 cells assessed as reduction in cell viability after 48 hrs by MTT assay; format: functional, cell-based; details: A549, 48 h
[3] = Cytotoxicity against human BCG823 cells assessed as reduction in cell viability after 48 hrs by MTT assay; format: functional, cell-based; details: BCG823, 48 h
HepG2 [4] = assay: Potency index, ratio of 5-fluorouracil IC50 to compound IC50 for human HepG2 cells; format: functional
A549 [5] = assay: Potency index, ratio of 5-fluorouracil IC50 to compound IC50 for human A549 cells; format: functional
[6] = Potency index, ratio of 5-fluorouracil IC50 to compound IC50 for human BCG823 cells; format: functional

| SMILES | IC50 (HepG2 [1]; read-out: IC50) [µM] | IC50 (HepG2 [1]; read-out: pIC50 (converted)) [µM] | IC50 (A549 [2]) [µM] | IC50 [3] [µM] | Ratio IC50 (HepG2 [4]) | Ratio IC50 (A549 [5]) | Ratio IC50 [6] |
| --- | --- | --- | --- | --- | --- | --- | --- |
| COc1c(OCc2ncc(C)o2)cc(O)c2c(=O)cc(-c3ccccc3)oc12 | 20.2 | 20.4 | > 100 | – | – | – | – |
| COc1c(OCCCCN2CCNCC2)cc(O)c2c(=O)cc(-c3ccccc3)oc12 | 1.07 | 1.07 | 1.74 | 0.98 | 18 | 9 | 17 |
| O=c1cc(-c2ccccc2)oc2c(OCCCCNC3CCCCC3)c(O)cc(O)c12 | 10.9 | 11 | – | 48.6 | – | – | – |
| COc1c(O)cc(O)c2c(=O)cc(-c3ccc(Cl)cc3)oc12 | 34.2 | 33.9 | – | – | – | – | – |
| COc1c(OCCCNCc2ccccc2)cc(O)c2c(=O)cc(-c3ccccc3)oc12 | 8.12 | 8.13 | 1.57 | 9.93 | – | – | – |
| COc1c(OCCCCN(CCO)CCO)cc(O)c2c(=O)cc(-c3ccccc3)oc12 | 2.64 | 2.63 | 1.26 | 5.89 | – | – | – |
| CCN(CC)CCCOc1c(O)cc(O)c2c(=O)cc(-c3ccccc3)oc12 | 67.5 | 67.6 | > 100 | – | – | – | – |
| O=c1cc(-c2ccccc2)oc2c(OCCN3CCOCC3)c(O)cc(O)c12 | 39.9 | 39.8 | > 100 | – | – | – | – |
| COc1c(O)cc(O)c2c(=O)cc(-c3ccc(F)cc3Br)oc12 | 33.5 | 33.9 | – | – | – | – | – |
| O=c1cc(-c2ccccc2)oc2c(OCCCCN3CCOCC3)c(O)cc(O)c12 | 15.1 | 15.1 | 82.3 | – | – | – | – |
| CN(C)CCOc1c(O)cc(O)c2c(=O)cc(-c3ccccc3)oc12 | 40 | 39.8 | > 100 | – | – | – | – |
| CNCCCCOc1c(O)cc(O)c2c(=O)cc(-c3ccccc3)oc12 | 97 | 97.7 | – | > 100 | – | – | – |
| COc1c(OCCCCN2CCN(C)CC2)cc(O)c2c(=O)cc(-c3ccccc3)oc12 | 1.12 | 1.12 | 1.5 | 5.3 | – | – | – |
| CC(C)NCCCCOc1c(O)cc(O)c2c(=O)cc(-c3ccccc3)oc12 | 29.9 | 30.2 | – | 71.2 | – | – | – |
| COc1c(OCCCN2CCOCC2)cc(O)c2c(=O)cc(-c3ccccc3)oc12 | 6.5 | 6.46 | 2.3 | 3.7 | – | – | – |
| CC(C)NCCOc1c(O)cc(O)c2c(=O)cc(-c3ccccc3)oc12 | 14.1 | 14.1 | – | > 100 | – | – | – |
| O=c1cc(-c2ccccc2)oc2c(OCCCN3CCOCC3)c(O)cc(O)c12 | 21.5 | 20.9 | > 100 | – | – | – | – |
| CCCNCCCCOc1c(O)cc(O)c2c(=O)cc(-c3ccccc3)oc12 | 9.99 | 10 | – | 51 | – | – | – |
| CCN(CC)CCOc1c(O)cc(O)c2c(=O)cc(-c3ccccc3)oc12 | 68.1 | 67.6 | > 100 | – | – | – | – |
| CCN(CC)CCCCOc1cc(O)c2c(=O)cc(-c3ccccc3)oc2c1OC | 1.72 | 1.74 | 1 | 6.17 | – | – | – |
| CN(C)CCCCOc1c(O)cc(O)c2c(=O)cc(-c3ccccc3)oc12 | 35.7 | 35.5 | > 100 | – | – | – | – |
| COc1c(OCc2cnoc2C)cc(O)c2c(=O)cc(-c3ccccc3)oc12 | 21.7 | 21.9 | > 100 | – | – | – | – |
| CN(C)CCCOc1c(O)cc(O)c2c(=O)cc(-c3ccccc3)oc12 | 41.8 | 41.7 | > 100 | – | – | – | – |
| COc1c(OCCCN(CCO)CCO)cc(O)c2c(=O)cc(-c3ccccc3)oc12 | 3.79 | 3.8 | 3 | 6.45 | – | – | – |
| CC(CO)NCCOc1c(O)cc(O)c2c(=O)cc(-c3ccccc3)oc12 (stereo not drawn) | 43.5 | 43.7 | – | 92.2 | – | – | – |
